Values of other authors as cited in patent US20220378704A1, “PROCESS FOR THE PREPARATION OF A NANOPARTICULATE ACTIVE INGREDIENT” (Bayer Aktiengesellschaft, priority 2019, published 2022).

Tests used:
[1] = within 5 min

## C#C[C@]1(O)CC[C@H]2[C@@H]3CCC4=Cc5oncc5C[C@]4(C)[C@H]3CC[C@@]21C [raw danazol particles, danazol]
Before / after LASP process in the MCR
  specific surface area: 0.66 m^2/g
Before LASP process
  mean particle size: 55 μm
[1]
  dissolution rate: 35%
